From the NIST ThermoML archive (doi:10.1016/j.jct.2008.02.020)
Numbers after ± are expanded uncertainties.

Details: Liquid, Buoyancy - hydrostatic balance with magnetic suspension - one sinker

Brc1ccccc1 [bromobenzene]
Details	mass density [kg/m3]
353.15 K, 29956 kPa	1447.5 ± 0.61
373.15 K, 98.54 kPa	1384.07 ± 0.57
373.15 K, 1150.1 kPa	1385.64 ± 0.57
373.15 K, 2174.4 kPa	1387.16 ± 0.57
373.15 K, 3917.7 kPa	1389.71 ± 0.57
373.15 K, 6182.4 kPa	1392.96 ± 0.57
373.15 K, 8042.7 kPa	1395.57 ± 0.57
373.15 K, 10003 kPa	1398.28 ± 0.58
373.15 K, 12008 kPa	1400.99 ± 0.58
373.15 K, 14086 kPa	1403.76 ± 0.58
373.15 K, 15913 kPa	1406.15 ± 0.58
373.15 K, 18066 kPa	1408.91 ± 0.58
373.15 K, 19882 kPa	1411.21 ± 0.58
373.15 K, 22174 kPa	1414.05 ± 0.59
373.15 K, 24053 kPa	1416.33 ± 0.59
373.15 K, 25897 kPa	1418.54 ± 0.59
373.15 K, 27711 kPa	1420.7 ± 0.59
373.15 K, 29531 kPa	1422.85 ± 0.59
393.15 K, 97.33 kPa	1355.66 ± 0.55
393.15 K, 1226 kPa	1357.56 ± 0.55
393.15 K, 2181.2 kPa	1359.15 ± 0.55
393.15 K, 3965.3 kPa	1362.08 ± 0.55
393.15 K, 6075.4 kPa	1365.47 ± 0.56
393.15 K, 8146.9 kPa	1368.75 ± 0.56
393.15 K, 9937.3 kPa	1371.46 ± 0.56
393.15 K, 11970 kPa	1374.53 ± 0.56
393.15 K, 14177 kPa	1377.78 ± 0.56
393.15 K, 15956 kPa	1380.34 ± 0.56
393.15 K, 18164 kPa	1383.47 ± 0.57
393.15 K, 20147 kPa	1386.23 ± 0.57
393.15 K, 22176 kPa	1389 ± 0.57
393.15 K, 23982 kPa	1391.42 ± 0.57
393.15 K, 26170 kPa	1394.3 ± 0.57
393.15 K, 28005 kPa	1396.7 ± 0.57
393.15 K, 29542 kPa	1398.68 ± 0.58
413.15 K, 99.45 kPa	1326.55 ± 0.53
413.15 K, 1202.8 kPa	1328.65 ± 0.53
413.15 K, 2177.1 kPa	1330.51 ± 0.53
413.15 K, 3915.5 kPa	1333.73 ± 0.54
413.15 K, 6185.5 kPa	1337.83 ± 0.54
413.15 K, 8176.1 kPa	1341.33 ± 0.54
413.15 K, 10032 kPa	1344.48 ± 0.54
413.15 K, 12104 kPa	1348.01 ± 0.55
413.15 K, 13992 kPa	1351.03 ± 0.55
413.15 K, 15890 kPa	1354.12 ± 0.55
413.15 K, 18162 kPa	1357.68 ± 0.55
413.15 K, 19933 kPa	1360.41 ± 0.55
413.15 K, 22150 kPa	1363.74 ± 0.55
413.15 K, 24133 kPa	1366.66 ± 0.56
413.15 K, 26039 kPa	1369.41 ± 0.56
413.15 K, 27898 kPa	1372.06 ± 0.56
413.15 K, 29858 kPa	1374.81 ± 0.56
433.15 K, 1243.8 kPa	1299.09 ± 0.52
433.15 K, 1973.3 kPa	1300.66 ± 0.52
433.15 K, 4075.9 kPa	1305.09 ± 0.52
433.15 K, 6197.8 kPa	1309.43 ± 0.52
433.15 K, 7981.5 kPa	1312.95 ± 0.52
433.15 K, 10020 kPa	1316.91 ± 0.53
433.15 K, 12073 kPa	1320.75 ± 0.53
433.15 K, 14034 kPa	1324.34 ± 0.53
433.15 K, 15960 kPa	1327.77 ± 0.53
433.15 K, 17921 kPa	1331.19 ± 0.53
433.15 K, 19992 kPa	1334.75 ± 0.54
433.15 K, 21950 kPa	1337.95 ± 0.54
433.15 K, 24018 kPa	1341.31 ± 0.54
433.15 K, 26143 kPa	1344.68 ± 0.54
433.15 K, 28052 kPa	1347.64 ± 0.54
433.15 K, 29864 kPa	1350.43 ± 0.55
453.15 K, 1135.4 kPa	1268.14 ± 0.5
453.15 K, 1982.5 kPa	1270.24 ± 0.5
453.15 K, 4017.7 kPa	1275.16 ± 0.5
453.15 K, 6189 kPa	1280.22 ± 0.5
453.15 K, 7994.2 kPa	1284.28 ± 0.51
453.15 K, 10139 kPa	1288.98 ± 0.51
453.15 K, 12157 kPa	1293.2 ± 0.51
453.15 K, 13982 kPa	1296.94 ± 0.51
453.15 K, 16134 kPa	1301.21 ± 0.52
453.15 K, 18122 kPa	1305.05 ± 0.52
453.15 K, 19974 kPa	1308.56 ± 0.52
453.15 K, 22141 kPa	1312.52 ± 0.52
453.15 K, 24115 kPa	1316.05 ± 0.53
453.15 K, 26121 kPa	1319.56 ± 0.53
453.15 K, 28034 kPa	1322.83 ± 0.53
453.15 K, 29912 kPa	1325.98 ± 0.53
473.15 K, 1191.2 kPa	1236.28 ± 0.48
473.15 K, 2175.4 kPa	1239.12 ± 0.48
473.15 K, 4131.5 kPa	1244.58 ± 0.48
473.15 K, 5988.1 kPa	1249.54 ± 0.49
473.15 K, 8161.4 kPa	1255.13 ± 0.49
473.15 K, 10165 kPa	1260.08 ± 0.49
473.15 K, 12166 kPa	1264.85 ± 0.49
473.15 K, 14163 kPa	1269.43 ± 0.5
473.15 K, 16125 kPa	1273.8 ± 0.5
473.15 K, 18167 kPa	1278.2 ± 0.5
473.15 K, 20146 kPa	1282.35 ± 0.51
473.15 K, 22123 kPa	1286.36 ± 0.51
473.15 K, 24157 kPa	1290.39 ± 0.51
473.15 K, 26075 kPa	1294.08 ± 0.51
473.15 K, 28020 kPa	1297.73 ± 0.51
473.15 K, 29860 kPa	1301.12 ± 0.52
